From US11384113B2, “Cobalamin derivatives and their use for the treatment of diseases caused by lack of vitamin B12 supply” (Albert-Ludwigs-Universitaet Freiburg, priority 2017, dated 2022)
Numbering of substitutions follows the chain as printed.

Columns and labels:
[1] = Concentration-dependent reaction rate of aquacobalamin with thiol ligand forming thiolatocobalamin (time-resolved UV-visible spectroscopy); assay type: physicochemical; settings: pH 7.2, l = 1, sodium triflate
Protocol: The UV-visible spectra of newly synthesized cobalamin derivatives was determined in EPPS buffer (40 mM, pH 7.6, l=1.0 M with sodium triflate). The reaction of aquacobalamin with cysteamine and mercaptopropionylglycine was monitored by time-resolved spectral scanning of reactions containing a fixed amount of aquacobalamin (10-25 μM (micromolar)) and various concentrations of the ligand.
Mercaptopropionylglycine reacted readily with aquacobalamin to form a stable MPGCbl complex at pH 7.2.
A fixed concentration of aquacobalamin was reacted with varying concentrations of the ligand MPG. The reaction was monitored by time-resolved UV-visible spectroscopy for a total of 50 minutes (FIG. 5). The spectral changes were consistent with the conversion of aquacobalamin into MPGCbl (FIG. 5 a) via a mechanism that involves no detectable reaction intermediates. Initial and final spectra are analyzed to confirm the identity of the thiolatocobalamin product (FIG. 5 b). Time courses were generated at the absorption maxima of each species (350 nm, H2OCbl^+, and 372 nm, MPGCbl) (FIG. 5 c).

[2] = biological target: T1, human wild type CblC (Homo sapiens, UniProt Q9Y4U1); test: Binding to CblC and conversion to base-off configuration (UV-visible spectrophotometry); settings: pH 7.6, EPPS buffer 0.04 M
T1 sequence (Q9Y4U1 1-282): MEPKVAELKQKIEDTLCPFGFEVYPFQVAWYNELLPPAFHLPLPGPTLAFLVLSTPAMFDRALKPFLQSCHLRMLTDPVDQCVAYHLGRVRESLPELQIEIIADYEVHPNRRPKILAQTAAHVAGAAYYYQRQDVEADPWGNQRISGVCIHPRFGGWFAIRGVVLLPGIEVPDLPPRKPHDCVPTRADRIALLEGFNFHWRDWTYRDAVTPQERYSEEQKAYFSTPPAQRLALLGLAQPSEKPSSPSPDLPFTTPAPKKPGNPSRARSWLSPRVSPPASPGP
Protocol: An important aspect for the bioactivity of the new compounds is their ability to bind to the processing enzyme CblC, and to undergo conversion to the base-off configuration, which enhances their reactivity. This is a critical step in all intracellular pathways of vitamin B12 metabolism that are involved in pathogenesis, and certainly, relevant to the cblC disease itself. […] Binding studies were conducted at pH 7.6 (EPPS buffer, 0.04 M) and analyzed by UV-visible spectrophotometry.

[3] = UV-visible spectrum of purified cobalamin in water (base-off configuration without CblC); assay type: physicochemical; settings: after acetone precipitation and vacuum filtration
[4] = biological target: T2, human recombinant CblC wild type (Homo sapiens, UniProt Q9Y4U1); assay type: biochemical
T2 sequence (Q9Y4U1 1-282): T1 sequence (Q9Y4U1 1-282)
Protocol: (§1) The ability of the newly synthesized Cbl derivatives to serve as substrates for CblC was examined (FIG. 12). CblC activity was measured by UV-visible spectroscopy according to published procedures. Analysis of reaction products was performed by mass spectrometry. We measured dealkylation and de-thiolation of Co—C and Co—S bonded Cbl derivatives, respectively, by wild type and mutant CblC proteins to determine whether these reactions could be supported in patients harboring an abnormal isoform of CblC with low or no enzymatic activity.
The enzymatic activity of CblC in the presence of CyaCbl and MPGCbl as substrates was evaluated under the same experimental conditions utilized to examine dealkylation of MeCbl and AdoCbl. […] The reaction was complete in less than 10 seconds, which is the time it takes to record the first spectrum after mixing of CblC-bound to CyaCbl or MPGCbl with 5 mM GSH (FIG. 12).
(§2) First, the ability of novel cobalamins described herein was tested to act as substrate for wild type CblC and to restore the lost activity of pathogenic variants, such as mutant Arg161Gly, that leads to early-onset form of the cblC disease.

[5] = biological target: T3, human recombinant CblC pathogenic mutant Arg161Gly (Homo sapiens, UniProt Q9Y4U1, R161G); assay type: biochemical
T3 sequence (Q9Y4U1 1-282 R161G): T1 sequence (Q9Y4U1 1-282) with R161G
Protocol: as §1, §2

[6] = system: fibroblasts from healthy subjects; test: MMA in conditioned medium of control fibroblasts; assay type: cell-based, human
Text: (§3) Cultured cells from control (healthy neonatal subjects) or cblC fibroblasts were supplemented without exogenous Cbl (negative control), with commercial CNCbl (current therapy control) or with the newly synthesized cobalamins (test group). The ability of these compounds to support intracellular Cbl metabolism in the absence of CblC was examined by monitoring disease biomarker metabolites Hcy and MMA levels in the conditioned medium.
(§4) The cellular response to treatment with new derivatives CyaCbl and MPGCbl in comparison with current therapeutic form CNCbl was measured. The ability of the new cobalamin derivatives CyaCbl and MPGCbl to achieve metabolic control, i.e. reduction of for example MMA production by cblC fibroblasts in culture, was examined as described in previously published experimental protocols. FIG. 13 provides a comparison of the effect of CNCbl (0.001 mM) versus the same dose of CyaCbl or MPGCbl given to cultured fibroblasts from healthy subjects (HFF, NHDF, PCS, Wiesel, Control) or from cblC patients (WG1801, WG2176, WG3354, GM10011, GM02345B, GM02452C).
(§5) Additional examination of the effect of thiolatocobalamins CyaCbl and MPGCbl and sulfur-containing alkylcobalamin Me-S-MeCbl with respect to structural analogues that are NOT available for therapy was also carried out, for comparative purposes. The results of cellular response (healthy controls and cblC patient fibroblasts) to cobalamin treatment, as reflected by MMA levels is provided in Table 6.

[7] = system: fibroblasts isolated from patients with cblC disease; test: MMA in conditioned medium of cblC patient fibroblasts; assay type: cell-based, human
Text: as §3, §4, §5

[8] = system: cultured fibroblasts; test: Cytotoxicity and cellular transport observed in cultured fibroblast experiments; assay type: cell-based, human
[9] = biological target: T2, human recombinant CblC wild type; assay type: biochemical; settings: dethiolation; 50 μM GSH

SMILES: CC([S][Co+2])C(=O)NCC(=O)O.CC1=C2N=C(C=C3N=C(C(C)=C4[N-]C(C(CC(N)=O)C4(C)CCC(=O)NCC(C)OP(=O)([O-])OC4C(CO)OC(n5cnc6cc(C)c(C)cc65)C4O)C4(C)N=C1C(CCC(N)=O)C4(C)CC(N)=O)C(CCC(N)=O)C3(C)C)C(CCC(N)=O)C2(C)CC(N)=O (stereo not drawn) [MPGCbl]
- K, concentration-dependent reaction rate (formation from aquacobalamin) [1]: 39.71 M⁻¹ s⁻¹
- Effect of binding to human wild type CblC on configuration [2]: induces their base-off configuration
- Configuration in the absence of the CblC protein [3]: at least a fraction of this Cbl derivative may exist in its base-off configuration
- Product of the reaction ([4]; cobalamin bound to human CblC, in the presence of GSH): H2OCbl^+
- Half-life of beta-axial ligand removal, Wild type CblC ([4]; human, pH 7.6): <0.5 min
- Product under ambient conditions, Mutant Arg161Gly ([5]; dethiolation, 50 μM GSH): H2OCbl
- Half-life of beta-axial ligand removal, Mutant Arg161Gly ([5]; human, pH 7.6): 1.5 min
- MMA in conditioned medium ([6]; Controls (group value), after 7 days): 0.120 μmol/mg protein
- MMA in conditioned medium ([6]; Controls, after 7 days wash-off period without supplemental cobalamin): 0.121 μmol/mg protein
- MMA in conditioned medium ([6]; HFF control fibroblasts, after 7 days): 0.116 μmol/mg protein
- MMA in conditioned medium ([6]; NHDF control fibroblasts, after 7 days): 0.096 μmol/mg protein
- MMA in conditioned medium ([6]; Wiezel control fibroblasts, after 7 days): 0.148 μmol/mg protein
- Reduction of MMA to the levels of healthy fibroblasts, compared with CNCbl ([7]; 0.001 mM, same dose as CNCbl, FIG. 13): far superior compared to CNCbl
- MMA in conditioned medium ([7]; GM02345B cblC fibroblasts, after 7 days): 0.182 μmol/mg protein
- MMA in conditioned medium ([7]; GM02452C cblC fibroblasts, after 7 days): 0.190 μmol/mg protein
- MMA in conditioned medium ([7]; GM10011 cblC fibroblasts, after 7 days): 0.087 μmol/mg protein
- MMA in conditioned medium ([7]; WG1801 cblC fibroblasts, after 7 days): 0.212 μmol/mg protein
- MMA in conditioned medium ([7]; WG2176 cblC fibroblasts, after 7 days): 0.216 μmol/mg protein
- MMA in conditioned medium ([7]; WG3354 cblC fibroblasts, after 7 days): 0.183 μmol/mg protein
- MMA in conditioned medium ([7]; cblC patients (group value), after 7 days): 0.178 μmol/mg protein
- MMA in conditioned medium ([7]; cblC patients, after 7 days wash-off period without supplemental cobalamin): 0.185 μmol/mg protein
- Transport into the cells ([8]; canonical TC transporter and its cellular receptor CD320): transported successfully into the cells
- Cytotoxicity ([8]; under the experimental conditions of the fibroblast cultures): not cytotoxic
- Product under ambient conditions, Wild type CblC [9]: H2OCbl
